SMILES strings stand for the structures.

This note sets out measurements from ChEMBL document CHEMBL1137835, “2-(Anilino)imidazolines and 2-(benzyl)imidazoline derivatives as h5-HT1D serotonin receptor ligands” (Bioorg Med Chem Lett, 2004).

Data set [1] deals with T1, 5-hydroxytryptamine receptor 1D (Homo sapiens, UniProt P28221). As to the kind of experiment: Binding affinity towards human 5-hydroxytryptamine 1D receptor.
Data set [2] can be described thus: Plasma half-life in rat at a dose of 5 mg/kg. The format is ADME, organism-based. Set-up: dose 5 mg/kg.
A short description of data set [3]: Volume of distribution of compound in rat body tissue at a dose of 5 mg/kg. Set-up: dose 5 mg/kg. Particulars: in vivo. The data set is classed as ADME, organism-based.
Data set [4] can be described thus: Total plasma clearance in rat at a dose of 5 mg/kg. The format is ADME, organism-based. Also noted: dose 5 mg/kg. Particulars: read-out: Total clearance.
The species named for data set [5] is Cavia porcellus. The data set can be described thus: Compound was tested for serotonergic activity on […] induced by electrical stimulation in guinea-pigs.
The target in data set [6] is T2, 5-hydroxytryptamine receptor 1B (Homo sapiens, UniProt P28222). The data set can be described thus: Binding affinity towards human 5-hydroxytryptamine 1B receptor.
Data set [7] can be described thus: Oral bioavailability in rat (dose 5 mg/kg). Particulars: in vivo. The format is ADME, organism-based.
For data set [8], the target named is Serotonin 1 receptors; 5-HT1B & 5-HT1D (Homo sapiens) (UniProt P28222+P28221). As to the kind of experiment: Ratio of 5-hydroxytryptamine 1B receptor to that of 5-hydroxytryptamine 1D receptor was determined. The format is protein assay.
The target of data set [9] is T3, Alpha-1A adrenergic receptor (Homo sapiens, UniProt P35348).
T3 sequence (P35348 whole entry): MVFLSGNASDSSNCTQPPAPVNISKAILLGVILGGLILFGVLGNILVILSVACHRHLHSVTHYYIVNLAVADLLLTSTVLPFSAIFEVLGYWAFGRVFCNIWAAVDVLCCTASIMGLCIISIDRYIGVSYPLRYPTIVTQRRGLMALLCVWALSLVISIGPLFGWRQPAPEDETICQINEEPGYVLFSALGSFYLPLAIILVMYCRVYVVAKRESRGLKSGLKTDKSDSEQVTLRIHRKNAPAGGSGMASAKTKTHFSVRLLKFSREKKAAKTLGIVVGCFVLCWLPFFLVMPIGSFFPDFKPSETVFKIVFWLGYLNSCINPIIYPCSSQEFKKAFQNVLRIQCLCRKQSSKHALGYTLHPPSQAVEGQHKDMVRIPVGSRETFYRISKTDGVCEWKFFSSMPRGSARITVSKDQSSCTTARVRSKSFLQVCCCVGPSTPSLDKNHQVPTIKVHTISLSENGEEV
As to the kind of experiment: Binding affinity towards human Alpha-1 adrenergic receptor.

Another data set is filed under the species Oryctolagus cuniculus. The data set can be described thus: Agonistic activity tested in isolated rabbit saphenous vein. The format is functional.
Data set [10] deals with T4, Muscarinic acetylcholine receptor M4 (Homo sapiens) (UniProt P08173).
T4 sequence (whole entry): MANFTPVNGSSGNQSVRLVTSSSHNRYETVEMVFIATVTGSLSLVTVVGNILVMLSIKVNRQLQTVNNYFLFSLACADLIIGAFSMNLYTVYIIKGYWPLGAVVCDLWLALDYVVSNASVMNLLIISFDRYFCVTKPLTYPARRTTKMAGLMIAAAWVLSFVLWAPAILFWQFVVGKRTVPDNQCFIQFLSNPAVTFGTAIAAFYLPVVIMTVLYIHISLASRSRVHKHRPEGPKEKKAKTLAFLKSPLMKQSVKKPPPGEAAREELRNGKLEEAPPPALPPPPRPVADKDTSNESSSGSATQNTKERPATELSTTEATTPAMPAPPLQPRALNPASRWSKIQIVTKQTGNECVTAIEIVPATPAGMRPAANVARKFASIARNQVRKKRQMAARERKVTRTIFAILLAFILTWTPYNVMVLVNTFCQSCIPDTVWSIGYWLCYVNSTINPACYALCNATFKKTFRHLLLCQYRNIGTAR
As to the kind of experiment: Inhibitory activity against human Muscarinic acetylcholine receptor M4 at 1000 nM.

Data set [11] deals with Cavia porcellus. The data set can be described thus: Compound was tested for serotonergic activity on […] induced by electrical stimulation in guinea-pigs (3-7 nM/kg).
Data set [12] deals with T2, 5-hydroxytryptamine receptor 1B. The note with it: 1000 nM.
Description: Percent displacement of radioligand from human 5-hydroxytryptamine 1B receptor at 1000 nM
In data set [13] the target is T1, 5-hydroxytryptamine receptor 1D. Particulars: 1000 nM.
Description: Percent displacement of radioligand from human 5-hydroxytryptamine 1D receptor at 1000 nM

T1 sequence (P28221 whole entry): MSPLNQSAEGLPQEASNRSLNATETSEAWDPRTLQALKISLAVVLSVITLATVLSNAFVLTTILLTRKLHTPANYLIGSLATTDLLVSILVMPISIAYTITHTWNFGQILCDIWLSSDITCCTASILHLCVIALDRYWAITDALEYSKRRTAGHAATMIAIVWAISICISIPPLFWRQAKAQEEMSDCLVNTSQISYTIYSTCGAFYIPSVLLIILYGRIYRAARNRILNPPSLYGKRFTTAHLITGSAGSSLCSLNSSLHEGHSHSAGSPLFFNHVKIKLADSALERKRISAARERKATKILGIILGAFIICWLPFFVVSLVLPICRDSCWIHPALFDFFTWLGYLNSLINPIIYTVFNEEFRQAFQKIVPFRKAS
T2 sequence (P28222 whole entry): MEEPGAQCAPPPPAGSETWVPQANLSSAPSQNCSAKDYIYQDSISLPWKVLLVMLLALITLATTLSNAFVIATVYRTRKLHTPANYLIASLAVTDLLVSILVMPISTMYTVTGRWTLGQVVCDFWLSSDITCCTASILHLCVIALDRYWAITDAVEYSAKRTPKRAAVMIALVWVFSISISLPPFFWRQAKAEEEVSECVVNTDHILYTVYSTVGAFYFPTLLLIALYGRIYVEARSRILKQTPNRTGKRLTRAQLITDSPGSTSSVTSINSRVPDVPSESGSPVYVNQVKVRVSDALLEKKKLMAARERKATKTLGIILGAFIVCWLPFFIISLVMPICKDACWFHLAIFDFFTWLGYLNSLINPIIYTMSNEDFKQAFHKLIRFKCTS

Turning to `Cc1cc(C(C)(C)C)cc(C)c1CC1=NCCCN1`, the Ki in data set [1] turned out to be 33 nM; in data set [6] it was 4430 nM. Besides, the half-life in data set [2] was determined as 1.03 h. The same molecule displayed a Vd in data set [3] of 1.24 L/kg. The clearance in [4] was 28.9 mL/min/kg. This molecule returned an IC50 in the data set listed under Cavia porcellus [5] of 5 nM/kg. In addition, the bioavailability in data set [7] turned out to be 9.9%.

As to `Cc1cccc(C)c1CC1=NCCN1`, the Selectivity in data set [8] is > 4.

As for `Cc1cc([N+](=O)[O-])cc(C)c1N=C1NCCN1`, the figures for the Ki in [1] and in data set [6] were 330 nM and 10200 nM, respectively.

Regarding `c1ccc(NC2=NCCN2)cc1`, the Ki in data set [1] and in data set [6] was > 30000 nM in each case.

Turning to `Cc1cc(Br)cc(C)c1CC1=NCCN1`, in data set [8], the Selectivity is 20.

Take `CC(C)(C)c1ccc(C2=NCCN2)cc1`: the results for the Ki in [1] and in data set [9] were 105 nM and 91 nM, respectively.

In the case of `Cc1cccc(C)c1N=C1NCCN1`, the results for the Ki in [1] and in [6] were 2080 nM and > 30000 nM, respectively. The Selectivity in [8] was > 10.

In turn, `Cc1cc(C(C)(C)C)cc(C)c1CC1=NCCN1C` displayed a half-life in data set [2] of 0.95 h. This molecule also returned a Vd in [3] of 3.97 L/kg. Besides, the clearance in data set [4] was determined as 66.4 mL/min/kg. In the data set listed under Cavia porcellus [5], this molecule came in with an IC50 of 10 nM/kg. Also, the bioavailability in data set [7] stood at 42.1%.

As for `Cc1cc(Br)cc(C)c1N=C1NCCN1`, the Ki in [1] is 54 nM; in [6] it was 1430 nM. The Selectivity in data set [8] was found to be 26.

On to `Clc1cc(I)cc(Cl)c1N=C1NCCN1` [PI-CLONIDINE], for which the inhibitory constant (Ki) in data set [1] turned out to be 50 nM; in [6], 1980 nM. In addition, the Selectivity in data set [8] is 40.

For the molecule `Cc1cc([N+](=O)[O-])cc(C)c1NC1=NCCN1`, the Selectivity in data set [8] turned out to be 30.

With `Cc1cc(C(C)(C)C)cc(C)c1CC1=NCCN1` [XYLOMETAZOLINE], the Ki in [9] worked out at 91 nM; in data set [6], 13 nM.

On to `Cc1cc(C(C)(C)C)cc(C)c1NC1=NCCN1`, for which, in data set [8], the Selectivity was 40.

Regarding `Cc1cc(C(C)(C)C)cc(C)c1CC1=NCCN1Cc1ccccc1`, in the data set filed under Oryctolagus cuniculus, the EC50 is 780 nM. This molecule showed a half-life in data set [2] of 1.64 h. The Vd in data set [3] was 7.28 L/kg. Moreover, the clearance in [4] turned out to be 57.6 mL/min/kg. The molecule further showed an IC50 in the data set listed under Cavia porcellus [5] of 0.4 nM/kg. This molecule also came in with a bioavailability in [7] of 9.3%. The same molecule showed an inhibition in [10] of 68%.

On to `Cc1cc(C(C)(C)C)cc(C)c1N=C1NCCN1`, for which the Ki in data set [1] was 0.3 nM; in [6], 12 nM.

On to `CNS(=O)(=O)Cc1ccc2[nH]cc(CCN(C)C)c2c1`, for which the IC50 in the data set with Cavia porcellus [11] is 7 nM/kg.

Consider `Clc1cccc(Cl)c1NC1=NCCN1`, for which the inhibition in data set [12] and in [13] was < 5% in each case.

The Ki is a dissociation constant, usually derived from enzyme kinetics or from competition with a known ligand. Low values mean a stronger hold on the target, high ones a looser hold on the target. Broadly, the half-life is how long it takes for the measured level to halve. By Vd is commonly meant a proportionality between amount in the body and measured concentration, not a real space. Higher therefore signals wide distribution into tissue. The clearance is the volume of plasma or blood freed of the substance per unit of time. The bioavailability is dose-corrected exposure relative to a reference, in per cent. A low value points to poor availability. The term EC50 denotes the concentration giving half of the maximal effect. Low readings indicate an effect from little substance, high ones a need for much substance. What is called inhibition is the percentage by which the read-out fell short of the control. Low readings indicate a weak effect, high ones a strong effect.
